Experimental data taken from patent publication US8911953B2, “TDF-related compounds and analogs thereof, analogs and bioactive fragments” (Thrasos Innovation, Inc., priority 2005, dated 2014).
No end group written: not given here.

Experiments:
[1] = tested on: synovial membrane-derived mesenchymal stem cells; assay: Chondrogenic differentiation, extracellular matrix deposition by alcian blue staining; type: cell-based
Description: Influence of TDFRP compounds (SEQ ID NO 16, 33, 45, 217, 221) on chondrogenic differentiation of synovial membrane-derived mesenchymal stem cells leading to increased extracellular matrix deposition as determined by alcian blue staining. TDFRP compounds, SEQ ID NO:16, 33, 45, 217, and 221 correspond to Compounds E, A, C, B, and D, respectively.
TDFRP compounds can be used to in the prophylaxis or treatment of diseases of the oral cavity, e.g., by affecting direct capping of bioactive molecules, or inducing the formation of reparative dentin and coronal or radicular pulp mineralization (Goldberg et al., Am J. Dent. 2003 February; 16(1):66-76). Further, TDFRP can be used in the prophylaxis or treatment of periodontal disease. […] TDFRP compounds can be used in the prophylaxis or treatment of traumatic brain injury, e.g., stroke, see, e.g., Cairns and Finkelstein, Phys Med Rehabil Clin N Am. 2003 February; 14(1 Suppl):S135-42). Intravenous administration of BMP-7 after ischemia improves motor function in stroke rats (Chang et al., Stroke. 2003 February; 34(2):558-64) and the TDFRP compounds may protect against or repair reperfusion injury. […] Thrasos compounds that bind to ALK3, a type I receptor for BMP, are therefore analyzed to examine if they induce chondrogenic differentiation leading to extra cellular matrix deposition in synovial membrane-derived mesenchymal stem cells. […]

[2] = tested on: vascular endothelial cells; assay: Smad 1, 5 phosphorylation in vascular endothelial cells (Western blot); type: cell-based; settings: added to vascular endothelial cells in culture
Method: Phosphorylation and nuclear translocation of Smads occurs following the activation of Type I and Type II receptors and subsequent signal transduction to intracellular Smad targets. Phosphorylation and nuclear translocation of R-Smad in HK-2, vascular endothelial, human prostate or other cells by TDFRP compounds is assayed by immuno-fluorescent microscopy methods, using anti-phospho Smad 1/5 antibodies according to the procedure of H Aoki, M Fujii, T Imamura, K Yagi, K Takehara, M Kato and K Miyazono. J. of Cell Sci. 114, 1483-1489, 2001) and by Western blot analysis (FIGS. 2, 3, 18, 2X).
The detection of Smad phosphorylation by Western analysis, for example in LNCaP (prostate cancer cells) or EC (vascular endothelial cells) in culture medium can be examined after exposure to varying concentrations of TDFRP or control compounds. BMP-7 serves as a positive control. Cells are lysed in RIPA lysis buffer (50 mM Tris-HCl at pH 8.0, 150 mM NaCl, 1% NP-40, 0.5% sodium deoxycholate, 0.1% SDS) containing 1 mM PMSF, 1 mM sodium orthovanadate, and 10 ug/mL proteinase inhibitor cocktail. Lysates are incubated on ice for 15 minutes, centrifuged, and transferred supernatant to a clean tube. 50 to 100 ug is used for analysis by SDS-PAGE. Resolved proteins are electro transferred onto PVDF membrane. The blot is blocked by incubating in 3% non-fat dry milk prepared in PBS at room temperature for 1 hour with constant slow agitation. The blot is incubated with 1-2 ug/mL of primary antibody (rabbit anti-phospho-Smad 1) prepared in PBS-milk, overnight with agitation at 4 degree C., washed twice with PBS, and incubated with secondary antibody (anti rabbit HRP conjugated IgG, 1:3000 dilution) at room temperature for 2 hours with agitation. After washing in PBS-0.05% Tween 20 for 5 minutes and rinsing, Smad phosphorylation is detected via an HRP reaction according to manufacturer's instructions (FIGS. 2, 3, 18, 2X).
Phosphorylation and nuclear translocation of Smads occurs following the activation of Type I and Type II receptors and subsequent signal transduction to intracellular Smad targets. Phosphorylation and nuclear translocation of R-Smad in HK-2 cells by TDFRP compounds is assayed by immuno-fluorescent microscopy methods, using anti-phospho Smad 1/5 antibodies according to the procedure of H Aoki, M Fujii, T Imamura, K Yagi, K Takehara, M Kato and K Miyazono. J. of Cell Sci. 114, 1483-1489, 2001) and by Western blot analysis in various cell types (FIGS. 2, 3, 18, 27).
For detection of Smad phosphorylation by Western analysis, LNCaP (prostate cancer cells) or EC (vascular endothelial cells) in culture medium are exposed to varying concentrations of TDFRP or control compounds. BMP-7 served as a positive control. Cells are lysed in RIPA lysis buffer (50 mM Tris-HCl at pH 8.0, 150 mM NaCl, 1% NP-40, 0.5% sodium deoxycholate, 0.1% SDS) containing 1 mM PMSF, 1 mM sodium orthovanadate, and 10 ug/mL proteinase inhibitor cocktail. Lysates are incubated on ice for 15 minutes, centrifuged, and transferred supernatant to a clean tube. 50 to 100 ug is used for analysis by
SDS-PAGE. Resolved proteins are electro transferred onto PVDF membrane. The blot is blocked by incubating in 3% non-fat dry milk prepared in PBS at room temperature for 1 hour with constant slow agitation. The blot is incubated with 1-2 ug/mL of primary antibody (rabbit anti-phospho-Smad 1) prepared in PBS-milk, overnight with agitation at 4 degree C., washed twice with PBS, and incubated with secondary antibody (anti rabbit HRP conjugated IgG, 1:3000 dilution) at room temperature for 2 hours with agitation. After washing in PBS-0.05% Tween 20 for 5 minutes and rinsing, Smad phosphorylation is detected via an HRP reaction according to manufacturer's instructions (FIGS. 3, 27).

[3] = tested on: rat osteosarcoma (17/2.8) cells; assay: Rat osteosarcoma (ROS) cell-based alkaline phosphatase assay; settings: 0.02-200 uM, 2 days, relative to BMP-7 standard
Method: BMP interactions with Type I and Type II receptors can induce alkaline phosphatase activity, a marker for osteoblast activity, in ROS cells. An assay procedure as described in Maliakal, J. C., Asahina, I., Hauschka, P. V., and Sampath, T. K. (1994) Growth factors 11, 227-234, was used to determine the biological activities of TDFRP compounds. In a typical experiment, rat osteosarcoma (17/2.8) cells are plated in 96 well plates (3.0×10^4 cells/well) and incubated overnight at 37 C in 5-6% CO2 incubator. The next day, healthy and confluent cells are treated with increasing concentrations of BMP-7 standard (1-10,000 ng/ml) served as positive control or TDFRP compounds (0.02-200 uM) prepared in medium containing 1% FBS and incubated for 2 days at 37 C in 5-6% CO2 incubator. The cellular content of alkaline phosphatase activity is determined by the method of Reddi and Huggins (Reddi, A. H., and Huggins, C. B (1972) Proc. Natl. Acad. Sci. USA 69, 1601-1605). Enzyme estimations are performed in 96 well plates. Following removal of culture medium, cells are washed with pre-warmed PBS (150 ul) and incubated in 100 ul of pre-warmed 1% Triton X-100 for 30 minutes at 37 C. Plates are centrifuged for 10 minutes at full speed, and recovered samples (15 ul) are assayed for enzyme activity by adding 90 ul p-nitrophenyl phosphate (Sigma) as a substrate in 0.05 M glycine-NaOH buffer, pH 9.3 and incubating for 20 minutes at 37 C. The reaction is stopped by adding 75 ul of 0.2 N NaOH/well and absorbance at 405/490 nm is measured on a Dynatech MR 700 plate reader. Results are expressed as relative activities compared to a BMP-7 standard.
BMP interactions with Type I and Type II receptors can induce alkaline phosphatase activity, a marker for osteoblast activity, in ROS cells. An assay procedure as described earlier (Maliakal, J. C., Asahina, I., Hauschka, P. V., and Sampath, T. K. (1994) Growth factors 11, 227-234) was used to determine the biological activities of TDFRP compounds. In a typical experiment, rat osteosarcoma (17/2.8) cells are plated in 96 well plates (3.0×10^4 cells/well) and incubated overnight at 37° C. in 5-6% CO2 incubator. […] The cellular content of alkaline phosphatase activity is determined by the method of Reddi and Huggins (Reddi, A. H., and Huggins, C. B (1972) Proc. Natl. Acad. Sci. USA 69, 1601-1605). […] The reaction is stopped by adding 75 ul of 0.2 N NaOH/well and absorbance at 405/490 nm is measured on a Dynatech MR 700 plate reader. Results are expressed as relative activities compared to a BMP-7 standard.

Substance: CIVNSSDDFLCKKYRS [SEQ ID NO:16]
- deposition of the extracellular matrix [1]: significantly increased
- phosphorylation and activation of intracellular Smad 1, 5 [2]: phosphorylation and activation of intracellular Smad 1, 5

Substance: CYFDDSSKVICKKYRS [SEQ ID NO:130]
- induction of alkaline phosphatase activity [3]: did not induce

Substance: CYFDDSSNVICKRYRS [SEQ ID NO:24]
- phosphorylation and activation of intracellular Smad 1, 5 [2]: phosphorylation and activation of intracellular Smad 1, 5

Substance: CYFDDSSNVLCKKYRS-NH2 (not fully specified (bridges); printed as CYFDDSSNVLCKKYRS-NH2; cysteine pairing not given here) [SEQ ID NO:33]
- phosphorylation and activation of intracellular Smad 1, 5 [2]: phosphorylation and activation of intracellular Smad 1, 5

Substance: CYFDDSSQVICKKYRS [SEQ ID NO:43]
- phosphorylation and activation of intracellular Smad 1, 5 [2]: phosphorylation and activation of intracellular Smad 1, 5

Substance: CYFDDSSQVLCKKYRS [SEQ ID NO:65]
- induction of alkaline phosphatase activity [3]: did not induce

Substance: CYFDDSSSVLCKKYRS [SEQ ID NO:209]
- phosphorylation and activation of intracellular Smad 1, 5 [2]: phosphorylation and activation of intracellular Smad 1, 5

Substance: CYFNDSSNCLLKKYRS [SEQ ID NO:229]
- phosphorylation and activation of intracellular Smad 1, 5 [2]: phosphorylation and activation of intracellular Smad 1, 5

Substance: CYFNDSSQVLCKRYRS [SEQ ID NO:221]
- induction of alkaline phosphatase activity [3]: did not induce
- deposition of the extracellular matrix [1]: significantly increased
